# Reference: patent US20160038482A1 (CHANRX CORPORATION, priority 2013, published 2016)
# Where two headings read alike, the source gives them in different places.
# How the values were obtained:
# [1] = Example 1: plasma concentrations of vanoxerine and metabolites after a 300 mg dose; type: in vivo, human; settings: low concentration group, any time point
# Description: Each patient gave samples before administration of their dose, and then again at nine further time points, 30 minutes after administration, 1, 2, 3, 4, 6, 8, 12, and 24 hours post administration.
# [2] = Example 4: daily doses for 14 days in healthy patients; type: in vivo, human
# Description: A standardized meal was served 15 minutes prior to each dosing.
# [3] = pharmacokinetic parameters from tests in dogs; type: in vivo; settings: dog, plasma
# From the text: Vanoxerine is primarily eliminated from the body in urine, bile, and feces. Indeed, a substantial amount of the drug is expelled, unabsorbed into the feces. […] However, the long half-life of the drug may actually be utilized to minimize the continuous or regular dosing of the drug.
# [4] = multiple daily dosing: hemodynamic effects; type: in vivo, human
# From the text: However, control and prevention of events of cardiac arrhythmia are important to these patients to prevent future re-occurrences and the deleterious effects and morbidity.
# cardiac arrhythmia = type: in vivo, human; settings: second patient, supraventricular tachycardia, 2 x 200 mg, after first dose
# [5] = Example 3: daily doses for 11 consecutive days, PK and hemodynamics; type: in vivo, human; settings: for half-life / Cmax: human, plasma, 11 days; for half-life: read-out: PK Data (Mean +/− SD) T1/2 (converted); for Cmax: read-out: PK Data (Mean +/− SD) CMax
# [6] = Example 5: daily doses for 7 days; type: in vivo, human
# [7] = tested on: recent onset symptomatic AF/AFL; test: Example 6: conversion of recent onset AF/AFL, placebo-controlled double-blind; type: in vivo, human; settings: for Conversion of Atrial Flutter, Conversion, %: pure atrial flutter N=4, any time within 24 hours; for conversion: all doses
# Description: The vanoxerine or identical appearing placebo was randomly assigned and administered in a double-blinded fashion. Definition of “pure” atrial flutter: only Atrial Flutter (no AF) seen at -30, -15, and 0 time points. Conversion at any time within 24 hours.
# [8] = Example 6: adverse events; type: in vivo, human
# From the text: The vanoxerine or identical appearing placebo was randomly assigned and administered in a double-blinded fashion.
# [9] = healthy subjects, cited from earlier work
compound,measurement,setting,value
"Fc1ccc(C(OCCN2CCN(CCCc3ccccc3)CC2)c2ccc(F)cc2)cc1 [Vanoxerine, 1-[2-[bis(4-fluorophenyl)methoxy]ethyl]-4-(3-phenylpropyl)piperazine]",plasma levels (highest reached),[1],~40 ng/mL
same,time to steady state serum levels,"[2]; 25, 75, and 125 mg daily for 14 days",9 to 11 days
same,adverse events,"[2]; 25, 75, and 125 mg daily for 14 days, healthy patients, after standardized meal",No significant adverse events
same,"steady state serum levels, dose proportionality",[2]; higher doses compared with the lower doses,disproportionately and statistically greater levels at higher doses
same,Tmax,[3]; oral,~3 h
same,bioavailability,"[3]; oral, read-out: systemic bioavailability",23%
same,half-life,[3]; read-out: T1/2 (elimination from the plasma) (converted),22 h
same,heart rate and systolic blood pressure,"[4]; daily use over 7, 10, and 14 days, 75, 100, 125, and 150 mg a day",increased heart rate and systolic blood pressure
same,heart rate and systolic blood pressure,"[4]; multiple dosing, several subjects",dose-related increases in heart rate and systolic blood pressure
same,time of conversion to normal sinus rhythm,cardiac arrhythmia,about 6 hours
same,plasma levels detectability,[5]; 25 mg daily,not detectable after 8 hours
same,plasma levels detectability,"[5]; 50, 75, and 100 mg daily",detectable at 24 hours
same,time to steady state,"[5]; 50, 75, and 100 mg daily",≤ 8 days
same,heart rate and systolic blood pressure,[5]; 75 and 100 mg daily doses,increased slightly in most subjects
same,PK linearity,"[5]; across 50, 75 and 100 mg doses",linear and dose proportional
same,half-life,[5]; 50 mg daily,49.4 h
same,Cmax,[5]; 75 mg daily,27.4 ng/mL
same,half-life,[5]; 75 mg daily,52.5 h
same,Cmax,[5]; 100 mg daily,40.2 ng/mL
same,half-life,[5]; 100 mg daily,15.4 h
same,"Cmax, ss, and AUC0-24ss inter-subject variability",[5]; steady state,55-85%
same,half-life of the drug,[5]; when daily doses are given,increased half-life
same,systolic blood pressure and heart rate,[6]; 100 mg daily for 7 days,increases in systolic blood pressure and heart rate were seen
same,systolic blood pressure and heart rate,[6]; 150 mg daily for 7 days,increases in systolic blood pressure and in heart rate
same,time to steady state levels,"[6]; 50, 100, and 150 mg daily, all patients",within one week
same,Percent conversion,"[7]; 200 mg (22), 0-4 hr",18%
same,Percent conversion,"[7]; 200 mg (22), 0-8 hr",45%
same,Percent conversion,"[7]; 200 mg (22), 0-24 hr",59%
same,improvement of conversion (percent increase in conversion over placebo),"[7]; 200 mg, 0-4 hours",38%
same,improvement of conversion (percent increase in conversion over placebo),"[7]; 200 mg, 0-8 hours",96%
same,improvement of conversion (percent increase in conversion over placebo),"[7]; 200 mg, 0-24 hours",55%
same,"Conversion of Atrial Flutter, Conversion, %",[7]; 200 mg,50%
same,Percent conversion,"[7]; 300 mg (25), 0-4 hr",40%
same,Percent conversion,"[7]; 300 mg (25), 0-8 hr",52%
same,Percent conversion,"[7]; 300 mg (25), 0-24 hr",64%
same,improvement of conversion (percent increase in conversion over placebo),"[7]; 300 mg, 0-4 hours",207%
same,improvement of conversion (percent increase in conversion over placebo),"[7]; 300 mg, 0-8 hours",126%
same,improvement of conversion (percent increase in conversion over placebo),"[7]; 300 mg, 0-24 hours",68%
same,"Conversion of Atrial Flutter, Conversion, %",[7]; 300 mg,75%
same,Percent conversion,"[7]; 400 mg (25), 0-4 hr",52%
same,Percent conversion,"[7]; 400 mg (25), 0-8 hr",76%
same,Percent conversion,"[7]; 400 mg (25), 0-24 hr",84%
same,improvement of conversion (percent increase in conversion over placebo),"[7]; 400 mg, 0-4 hours",300%
same,improvement of conversion (percent increase in conversion over placebo),"[7]; 400 mg, 0-8 hours",230%
same,improvement of conversion (percent increase in conversion over placebo),"[7]; 400 mg, 0-24 hours",121%
same,"Conversion of Atrial Flutter, Conversion, %",[7]; 400 mg,75%
same,conversion,[7]; at 12 hours,greater than 50%
same,conversion,[7]; at about 7 hours,greater than 40%
same,conversion,[7]; at about 16 hours,~60%
same,"conversion to sinus rhythm of recent onset symptomatic AF/AFL, dose dependence","[7]; doses of 200, 300 and 400 mg",highly statistically significant dose dependent increase
same,Adverse events: number of AEs reported,[8]; 200 mg (22),8 AEs
same,Adverse events: number of SAEs,[8]; 200 mg (22),1 SAE
same,"Adverse events: subjects reporting, N (%)",[8]; 200 mg (22),4 (18%) subjects
same,Adverse events: number of AEs reported,[8]; 300 mg (25),12 AEs
same,"Adverse events: subjects reporting, N (%)",[8]; 300 mg (25),7 (28%) subjects
same,Adverse events: number of AEs reported,[8]; 400 mg (25),23 AEs
same,Adverse events: number of SAEs,[8]; 400 mg (25),1 SAE
same,"Adverse events: subjects reporting, N (%)",[8]; 400 mg (25),10 (40%) subjects
same,1:1 AFL post dose,"[8]; 200, 300 and 400 mg",No 1:1 AFL seen post dose in any subject
same,proarrhythmia,"[8]; 200, 300 and 400 mg",absence of proarrhythmia
same,tolerability,"[8]; 200, 300 and 400 mg",well tolerated at all doses
same,side-effects,[9]; daily repetitive dose of 50 mg,no side-effects should be expected
same,side-effects,[9]; higher doses,"concentration difficulties, increase systolic blood pressure, asthenia, and a feeling of drug influence"
